# Reference: patent publication US12252457B2, “Compositions and methods for reducing tactile dysfunction, anxiety, and social impairment” (President and Fellows of Harvard College, priority 2018, dated 2025)
# Several values for one entry are separate records, joined by “and”; a condition that tells them apart may be missing. Equal values may be shown once. Entries after “also recorded” stand apart in the source; their conditions may differ. Where a name gives a salt, the structure may show the parent alone. Read-outs that look alike come from different tables or passages of the source.
# Experiments:
# [1] = molecular target: T1, human GABA-A α1β3γ2 ion channels (Homo sapiens, UniProt P14867+P28472); test: Human GABA-A receptor IonFlux HT agonist assay (Cl-flux), α1β3γ2; format: cell-based; conditions: for Normalized Peak hGABAA α1β3γ2 Current (%) Agonist, Mean: normalized to EC100 GABA (30 μM)
# T1 construct: expressed in transfected cells
# T1 sequence (P14867 28-456): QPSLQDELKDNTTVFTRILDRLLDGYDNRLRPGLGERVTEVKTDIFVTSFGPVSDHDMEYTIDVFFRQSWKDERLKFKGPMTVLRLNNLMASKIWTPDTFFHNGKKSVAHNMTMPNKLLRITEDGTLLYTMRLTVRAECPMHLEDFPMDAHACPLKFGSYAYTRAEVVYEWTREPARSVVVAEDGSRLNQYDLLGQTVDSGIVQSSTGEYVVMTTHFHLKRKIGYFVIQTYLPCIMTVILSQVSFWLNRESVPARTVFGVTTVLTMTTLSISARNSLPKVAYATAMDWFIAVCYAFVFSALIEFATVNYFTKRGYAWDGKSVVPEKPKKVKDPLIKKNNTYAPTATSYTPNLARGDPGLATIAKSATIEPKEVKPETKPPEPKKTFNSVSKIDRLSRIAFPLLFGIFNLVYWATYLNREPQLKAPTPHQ
# T1 sequence (P28472 26-473): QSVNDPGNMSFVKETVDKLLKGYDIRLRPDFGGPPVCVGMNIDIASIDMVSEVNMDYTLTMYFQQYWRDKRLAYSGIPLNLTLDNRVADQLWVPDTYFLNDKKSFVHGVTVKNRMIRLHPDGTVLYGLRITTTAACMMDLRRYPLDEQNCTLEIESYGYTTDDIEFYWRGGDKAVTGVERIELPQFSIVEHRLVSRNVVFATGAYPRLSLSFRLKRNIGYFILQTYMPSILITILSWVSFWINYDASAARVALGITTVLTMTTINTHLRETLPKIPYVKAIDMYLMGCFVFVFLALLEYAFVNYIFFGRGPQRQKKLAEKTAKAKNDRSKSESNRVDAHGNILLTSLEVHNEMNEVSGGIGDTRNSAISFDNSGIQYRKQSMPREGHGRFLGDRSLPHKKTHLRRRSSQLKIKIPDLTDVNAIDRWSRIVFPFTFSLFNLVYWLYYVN
# T1 sequence (P18507 40-467 partner limits assumed): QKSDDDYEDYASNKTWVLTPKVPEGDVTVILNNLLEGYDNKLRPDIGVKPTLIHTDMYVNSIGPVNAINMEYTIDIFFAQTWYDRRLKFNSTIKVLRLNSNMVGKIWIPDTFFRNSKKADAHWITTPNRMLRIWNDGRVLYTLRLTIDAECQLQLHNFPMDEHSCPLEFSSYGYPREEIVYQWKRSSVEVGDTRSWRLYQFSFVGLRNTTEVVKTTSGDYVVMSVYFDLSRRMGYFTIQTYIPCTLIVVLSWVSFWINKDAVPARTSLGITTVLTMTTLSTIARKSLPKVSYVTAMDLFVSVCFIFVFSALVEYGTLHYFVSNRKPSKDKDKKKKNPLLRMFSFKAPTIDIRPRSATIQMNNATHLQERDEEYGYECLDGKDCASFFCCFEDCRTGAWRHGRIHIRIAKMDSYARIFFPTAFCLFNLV
# Description: (§1) Six additions of 0.33% DMSO for 2 seconds were introduced to the cells to act as a time matched vehicle control for the agonist. Note: The test compound was applied over two ‘experimental patterns’ in increasing concentrations. […] Time-matched negative and reference compound data are included for comparison.
# The supplied compounds were prepared in DMSO to concentrations that were 300× the final assay concentrations of 0.1, 0.3, 1, 3, 10, 30 and 100 μM. Aliquots were taken out and diluted 300× into external buffer to give the final assay concentration. All wells included a final DMSO concentration of 0.33% including all control wells.
# (§2) All recordings were obtained from a holding potential of −60 mV. The compound addition sequence that was used for all additions was the same for all assays. […] Each test concentration of compound was applied for 2 seconds followed by 30 seconds wash. The process was repeated with the next ascending concentration of test compound up to a maximum of six concentrations per well (FIG. 14).
# (§3) Peak inward currents in response to the additions of compound were measured. […] All data were first exported to an Excel compatible data file and then analyzed using Graph Pad Prism software.
# [2] = molecular target: T2, human GABA-A α2β3γ2 ion channels (Homo sapiens, UniProt P28472+P47869); test: Human GABA-A receptor IonFlux HT agonist assay (Cl-flux), α2β3γ2; format: cell-based; conditions: for Normalized Percentage Activation, Mean: hGABAA α2β3γ2
# T2 construct: expressed in transfected cells
# T2 sequence (P47869 29-451): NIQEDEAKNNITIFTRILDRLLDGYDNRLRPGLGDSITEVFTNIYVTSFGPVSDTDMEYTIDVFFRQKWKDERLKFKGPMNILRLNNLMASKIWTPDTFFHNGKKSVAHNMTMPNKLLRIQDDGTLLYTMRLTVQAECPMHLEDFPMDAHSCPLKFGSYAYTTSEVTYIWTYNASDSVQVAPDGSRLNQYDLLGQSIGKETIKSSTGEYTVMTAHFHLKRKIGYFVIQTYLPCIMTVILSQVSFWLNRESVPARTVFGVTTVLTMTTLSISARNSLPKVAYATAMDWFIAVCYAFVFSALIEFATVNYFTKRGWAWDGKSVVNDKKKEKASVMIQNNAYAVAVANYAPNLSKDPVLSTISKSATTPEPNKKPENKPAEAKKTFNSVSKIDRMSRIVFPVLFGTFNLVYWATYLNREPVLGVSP
# T2 sequence (P28472 26-473): T1 sequence (P28472 26-473)
# T2 sequence (P18507 40-467 partner limits assumed): T1 sequence (P18507 40-467 partner limits assumed)
# Source text: as §1, with “(FIG. 12A) Six” for “Six”, “agonist. (FIG. 12B)” for “agonist.”
# […] Aliquots were taken out and diluted 300× into external buffer to give the final assay concentration. All wells included a final DMSO concentration of 0.33% including all control wells.
# as §2, §3
Structure (SMILES),agonism of α1β3γ2-containing GABAA receptor (in words) [1],"Normalized Peak hGABAA α1β3γ2 Current (%) Agonist, Mean ([1]; 0.1 μM) [%]","Normalized Peak hGABAA α1β3γ2 Current (%) Agonist, Mean ([1]; 0.3 μM) [%]","Normalized Peak hGABAA α1β3γ2 Current (%) Agonist, Mean ([1]; 1 μM) [%]","Normalized Peak hGABAA α1β3γ2 Current (%) Agonist, Mean ([1]; 3 μM) [%]","Normalized Peak hGABAA α1β3γ2 Current (%) Agonist, Mean ([1]; 10 μM) [%]","Normalized Peak hGABAA α1β3γ2 Current (%) Agonist, Mean ([1]; 30 μM) [%]","Normalized Peak hGABAA α1β3γ2 Current (%) Agonist, Mean ([1]; 100 μM) [%]",EC50 [2] [µM],"Normalized Percentage Activation, Mean ([2]; 0.3 μM) [%]","Normalized Percentage Activation, Mean ([2]; 1 μM) [%]","Normalized Percentage Activation, Mean ([2]; 3 μM) [%]","Normalized Percentage Activation, Mean ([2]; 10 μM) [%]","Normalized Percentage Activation, Mean ([2]; 30 μM) [%]","Normalized Percentage Activation, Mean ([2]; 100 μM) [%]","Normalized Percentage Activation, Mean ([2]; 300 μM) [%]","Normalized Percentage Activation, Mean ([2]; 1000 μM) [%]",agonism of α2β3γ2-containing GABAA receptor (in words) ([2]; hydrochloride),"EC50 ([1]; GABAA receptor chloride flux assay, read-out: EC50, activation of α1β3γ2-containing GABAA receptors)","EC50 ([2]; GABAA receptor chloride flux assay, read-out: Estimated EC50 (μM), activation of α2β3γ2-containing GABAA receptors) [µM]"
"NC1C=C(C(=O)O)CCC1 (centres unmarked) [Compound 5, 3-aminocyclohex-1-enecarboxylic acid hydrochloride]",not an agonist,0.58,0.56,0.58,0.62,0.79,0.57,0.49,> 1000,1.42,1.28,1.23,1.56,1.48,1.96,1.77,1.64,not an agonist; also recorded: no agonism,–,–
"O=C(O)C1=CCNCC1 [Isoguvacine, isoguvacine]",–,0.55,1.02,1.92,4.94,21.18,53.29,79.91,–,2.09,4.69,10.43,32.71,63.48,85.91,99.01,100.05,–,23.3 µM and 19.7 µM,18.7
